The values that follow come from patent US20140030346A1, “DISINTEGRABLE CORE PARTICLE FOR PHARMACEUTICAL PREPARATION” (priority 2010, published 2014).

The nature of data set [1]: Dissolution test, ibuprofen (paddle method, JP second fluid pH 6.8). The note with it: JP second fluid pH 6.8, 37° C., 75 rpm. The format is physicochemical. As to the method:
(§1) Dissolution tests were carried oat, according to the procedures shown in Tables 6 to 8 and described below, on pharmaceutical preparations composed of the drug-containing particles obtained in Examples 11 and 12. The results are shown in Tables 9 and 10 and in FIGS. 14 and 15.
The liquid sampled in the dissolution test is used directly as the sample solution. Analysis according to “2.01 Liquid Chromatography” is carried out on this sample solution. Testing of the ibuprofen content in the sample solution is carried out under the conditions indicated in (1) above.
In a separate operation, 25 mg of ibuprofen reference is precisely weighed out and dissolved in acetonitrile while bringing the volume up to exactly 50 mL. Next, 5 mL of this solution is precisely measured out and JP second fluid is added so as to bring the volume up to exactly 25 mL, thereby giving a reference solution (about 100 ppm). In a separate operation, 5 mL of this solution is precisely measured out and JP second fluid is added so as to bring the volume up to 50 mL, thereby giving a 50 ppm reference solution. Next, 10 mL of this solution is precisely measured out and JP second fluid is added so as to bring the volume up to exactly 25 mL, thereby giving a […] reference solution. Liquid chromatography is carried out on these reference solutions, and the slopes (a) and intercepts (t) of the straight lines obtained by plotting the peak areas and concentrations of the ibuprofen references are determined. The dissolution rate is determined by entering the content B in the sample solution into the following formula: […]

Data set [2] in a line: Dissolution test, rabeprazole (paddle method, tris buffer pH 8.0). The format is physicochemical. Particulars: tris buffer pH 8.0, 37° C., 50 rpm. The protocol: as §1
First, 20 mg of rabeprazole sodium is precisely weighed cut and dissolved by adding 30 mL of an aqueous NaOH solution (0.5 M), after which 45 mL of methanol is added, then the volume is brought up to exactly 100mL with a water-methanol solution (2:3). Two mL of this solution is precisely measured out and brought up to exactly 100 mL with a water-methanol solution (2:3), thereby giving a 4 ppm reference solution. In a separate procedure, 2 mL of the same solution is precisely measured out and brought up to a volume of exactly 200 mL with a water-methanol solution (2:3), thereby giving a 2 ppm reference solution. Liquid chromatography is carried on these reference solutions, and the slopes (a) and intercepts (t) of the straight lines obtained by plotting the peak areas and concentrations of rabeprazole are determined.
One milliliter of an aqueous NaOH solution (0.5 M) is added to 5 mL of the sample solution at each sampling time, and the resulting solution is thoroughly mixed. Next, 4 mL of this solution is precisely measured out, then 2 mL of an aqueous NaOH solution (0.5 M) and 8 mL of methanol are added, following which the volume is brought up to exactly 20 mL with a water-methanol solution (2:3). Liquid chromatography is then carried cut under the conditions described above, and the peak area (Qt) for rabeprazole is determined. Both the reference solutions and the sample solution are used as injection solutions after filtration with a membrane filter having a pore sire of 0.2 μm.
Dissolution rate (%)=(Qt−t)/a×5×6/5×900/1,000/amount of rabeprazole Na collected (mg)×100

Consider `CC(C)Cc1ccc(C(C)C(=O)O)cc1` (stereo not drawn) [IBP-Ref., Ibuprofen], for which the Dissolution rate in data set [1] (dissolution time 5 min) turned out to be 49.5%; in data set [1] (dissolution time 10 min), 77.3%; in data set [1] (dissolution time 15 min) it was 83.4%; in data set [1] (dissolution time 20 min) it was 86.0%; in data set [1] (dissolution time 30 min), 89.6%; in data set [1] (dissolution time 60 min), 95.0%.

Regarding `COCCCOc1ccnc(C[S+]([O-])c2nc3ccccc3[nH]2)c1C` (stereo not drawn) [RBP-Ref., Rabeprazole Na], the Dissolution rate in data set [2] (dissolution time 5 min) is 78.6%; in data set [2] (dissolution time 10 min), 86.0%; in data set [2] (dissolution time 15 min), 87.1%; in data set [2] (dissolution time 20 min) it was 87.5%; in data set [2] (dissolution time 30 min), 85.5%; in data set [2] (dissolution time 60 min), 78.4%.
